The source of these data is ChEMBL document CHEMBL1125021, “4-[(Carboxymethyl)oxy]- and 4-[(carboxymethyl)amino]-5,7-dichloroquinoline-2-carboxylic acid: new antagonists of the strychnine-insensitive glycine binding site on the N-methyl-D-aspartate receptor complex” (J Med Chem, 1990).

Experiment [1] deals with Glutamate NMDA receptor. The experiment can be described thus: Binding activity against N-methyl-D-aspartate glutamate receptor in rat brain homogenate using [3H]-glycine as the radioligand. Type of experiment: tissue-based.
The nature of experiment [2]: Selectivity ratio as the ratio of IC50 values for [3H]CPP/[3H]-gly.
Experiment [3] can be described thus: Antagonistic activity against N-methyl-D-aspartate glutamate receptor induced cGMP in rat cerebellar slices.. Format: functional.
In experiment [4] the target is Glutamate NMDA receptor. The experiment can be described thus: Binding activity against N-methyl-D-aspartate glutamate receptor in rat brain homogenate using [3H]CPP as the radioligand. Type of experiment: tissue-based.

Turning to `O=C(O)CNc1cc(C(=O)O)nc2cc(Cl)cc(Cl)c12`, the figures for the IC50 in experiment [1], in experiment [3] and in experiment [4] were 0.1 µM, 3.6 µM and 140 µM, respectively. Also, the Ratio in experiment [2] was found to be 1400.

For `O=C(O)COc1cc(C(=O)O)nc2cc(Cl)cc(Cl)c12`, the values for the IC50 in experiment [1], in experiment [3] and in experiment [4] were 9 µM, 225 µM and 893 µM, respectively. For the same molecule, in experiment [2], the Ratio stood at 99.

In the case of `O=C(O)c1cc(O)c2ccc(Cl)cc2n1` [7-CHLOROKYNURENIC ACID], the Ratio in experiment [2] was determined as 405. In experiment [3], the midpoint of inhibition, the IC50, lay at 8 µM.

Take `O=C(O)c1cc(O)c2c(Cl)cc(Cl)cc2n1`: the Ratio in experiment [2] was determined as 463. For the same molecule, the results for the IC50 in experiment [3] and in experiment [4] were 3.5 µM and 37 µM, respectively.
